{
  "source": "paper PMC8177775",
  "about": "(Cancer Science, 2021)",
  "origin": "cited, not measured here",
  "key": {"[1]": {"system": "patients with solid tumors", "details": "cited from earlier work"}, "[2]": {"system": "patients with acute myeloid leukemia", "details": "n = 36; cited from earlier work"}, "[3]": {"system": "patients with wild‐type p53 and RAS or RAF mutations and locally advanced or metastatic solid tumors", "details": "26 patients; cited from earlier work"}},
  "data": [
    {"smiles": "CCOc1cc(C(C)(C)C)ccc1C1=N[C@@](C)(c2ccc(Cl)cc2)[C@@](C)(c2ccc(Cl)cc2)N1C(=O)N1CCN(CCCS(C)(=O)=O)CC1", "note": "[RG7112]", "values": [
      {"measurement": "Grade ≥ 3 lymphocyte count decreased", "setting": "[1]; n = 76", "result": 11, "unit": "patients"},
      {"measurement": "Grade ≥ 3 platelet count decreased", "setting": "[1]; n = 76", "result": "two patients"},
      {"measurement": "Tolerability", "setting": "[1]; patients (n = 76) with solid tumors", "result": "generally well tolerated"}
    ]},
    {"smiles": "CC(C)[C@@H](CS(=O)(=O)C(C)C)N1C(=O)[C@@](C)(CC(=O)O)C[C@H](c2cccc(Cl)c2)[C@H]1c1ccc(Cl)cc1", "note": "[AMG 232]", "values": [
      {"measurement": "Common treatment-related AEs", "setting": "[2]", "result": "nausea, diarrhea, and vomiting"},
      {"measurement": "MTD", "setting": "[2]", "result": "not reached"}
    ]},
    {"smiles": "CC(C)(C)C[C@@H]1N[C@@H](C(=O)N[C@H]2CC[C@H](O)CC2)[C@H](c2cccc(Cl)c2F)[C@]12C(=O)Nc1cc(Cl)ccc12", "note": "[SAR405838]", "values": [
      {"measurement": "Most common reported AEs", "setting": "[3]", "result": "diarrhea, blood creatine phosphokinase increased, nausea, and vomiting"}
    ]}
  ]
}
